Measurements: PubChem BioAssay AID256 (DTP/NCI, 2004)
Several values for one entry are separate records, joined by “and”; a condition that tells them apart may be missing. Identical values can stand only once. Toxic doses and inconclusive results are not listed. The calls were made as follows: active = survival T/C of 150% or more; inactive = T/C below 125% in these data.

System: CD2F1 mice, L1210 leukemia ip, survival T/C
Test: NCI In Vivo Anticancer Drug Screen. Data for tumor model L1210 Leukemia (intraperitoneal) in CD2F1 (CDF1) mice
Settings: higher = longer survival
Method in brief: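 Read-out first: treated-group measurement over vehicle-control measurement, expressed as a ratio. Animals bore a transplanted tumor line and were dosed with compound or vehicle.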

[1] = endpoint: mean survival time, dose: 100.0 mg/kg/injection, schedule: Q01DX009 (ip), vehicle: saline with Tween-80
[2] = endpoint: mean survival time, dose: 100.0 mg/kg/injection, schedule: Q04DX003 (ip), vehicle: saline with Tween-80
[3] = endpoint: mean survival time, dose: 200.0 mg/kg/injection, schedule: Q01DX009 (ip), vehicle: saline with Tween-80
[4] = endpoint: mean survival time, dose: 200.0 mg/kg/injection, schedule: Q04DX003 (ip), vehicle: saline with Tween-80
[5] = endpoint: mean survival time, dose: 400.0 mg/kg/injection, schedule: Q01DX009 (ip), vehicle: saline with Tween-80
[6] = endpoint: mean survival time, dose: 400.0 mg/kg/injection, schedule: Q04DX003 (ip), vehicle: saline with Tween-80
[7] = endpoint: mean survival time, dose: 100.0 mg/kg/injection, schedule: Q04DX002 (ip), vehicle: saline with Tween-80
[8] = endpoint: mean survival time, dose: 200.0 mg/kg/injection, schedule: Q04DX002 (ip), vehicle: saline with Tween-80
[9] = endpoint: mean survival time, dose: 400.0 mg/kg/injection, schedule: Q04DX002 (ip), vehicle: saline with Tween-80
[10] = endpoint: mean survival time, dose: 25.0 mg/kg/injection, schedule: Q01DX009 (ip), vehicle: saline with Tween-80
[11] = endpoint: mean survival time, dose: 50.0 mg/kg/injection, schedule: Q01DX009 (ip), vehicle: saline with Tween-80
[12] = endpoint: mean survival time, dose: 200.0 mg/kg/injection, schedule: Q01DX009 (ip), vehicle: saline

Measured: T/C

NC(=O)C#CC(N)=O
inactive: endpoint: mean survival time, dose: 0.37 mg/kg/injection, schedule: Q01DX009 (ip), vehicle: saline 101 % of control | endpoint: mean survival time, dose: 0.75 mg/kg/injection, schedule: Q01DX009 (ip), vehicle: saline 103 % of control | endpoint: mean survival time, dose: 1.5 mg/kg/injection, schedule: Q01DX009 (ip), vehicle: saline 109 % of control | endpoint: mean survival time, dose: 3.0 mg/kg/injection, schedule: Q01DX009 (ip), vehicle: saline 122 % of control | [1] 95 % of control | [2] 108 % of control | [3] 98 % of control | [4] 92 % of control | [5] 108 % of control | [6] 89 % of control

C(CN1CCOCC1)CN1CN(CCCN2CCOCC2)CN(CCCN2CCOCC2)C1
inactive: [2] 106 % of control | [4] 101 % of control | [6] 113 % of control

CS(=O)(=O)OCCCN(CCCOS(C)(=O)=O)c1ccc(C=Nc2ccc(-c3csc(COc4ccc(Cl)cc4)n3)cc2)cc1
inactive: endpoint: mean survival time, dose: 100.0 mg/kg/injection, schedule: Q01DX001 (ip), vehicle: saline with Tween-80 91 % of control | endpoint: mean survival time, dose: 200.0 mg/kg/injection, schedule: Q01DX001 (ip), vehicle: saline with Tween-80 91 % of control | endpoint: mean survival time, dose: 400.0 mg/kg/injection, schedule: Q01DX001 (ip), vehicle: saline with Tween-80 95 % of control

CC(=O)OCC1=C(COC(C)=O)C2OC1C(OC(C)=O)C2OC(C)=O (stereo not drawn)
inactive: [7] 102 % of control | [8] 98 % of control | [9] 94 % of control

CC(C)N=C(N)c1ccc(NC(=O)c2ccc(C(=O)Nc3ccc(C(N)=NC(C)C)cc3)cc2)cc1
inactive: endpoint: mean survival time, dose: 6.25 mg/kg/injection, schedule: Q01DX Z (ip), vehicle: water 93 % of control

O=C(NCc1ccccc1)c1ccccc1/C(=N/O)c1ccccc1
inactive: endpoint: mean survival time, dose: 100.0 mg/kg/injection, schedule: Q01DX001 (ip), vehicle: saline sonified 92 % of control | endpoint: mean survival time, dose: 200.0 mg/kg/injection, schedule: Q01DX001 (ip), vehicle: saline sonified 94 % of control | endpoint: mean survival time, dose: 400.0 mg/kg/injection, schedule: Q01DX001 (ip), vehicle: saline sonified 88 % of control

CCOC(=O)c1c(NC(=O)CBr)sc(C)c1C
inactive: endpoint: mean survival time, dose: 75.0 mg/kg/injection, schedule: Q01DX001 (ip), vehicle: saline 104 % of control | endpoint: mean survival time, dose: 150.0 mg/kg/injection, schedule: Q01DX001 (ip), vehicle: saline 98 % of control | endpoint: mean survival time, dose: 300.0 mg/kg/injection, schedule: Q01DX001 (ip), vehicle: saline 104 % of control

Nc1cc(=O)c2[nH]cnc2[nH]1
inactive: endpoint: mean survival time, dose: 100.0 mg/kg/injection, schedule: Q01DX001 (ip), vehicle: carboxymethylcellulose (CMC) 95 % of control | endpoint: mean survival time, dose: 200.0 mg/kg/injection, schedule: Q01DX001 (ip), vehicle: carboxymethylcellulose (CMC) 104 % of control | endpoint: mean survival time, dose: 400.0 mg/kg/injection, schedule: Q01DX001 (ip), vehicle: carboxymethylcellulose (CMC) 101 % of control

COc1cccc2c1C(=O)c1c(O)c3c(c(O)c1C2=O)C[C@@](O)(C(=O)CSc1ccccc1)C[C@@H]3OC1CC(N)C(O)C(C)O1 (stereo partly drawn)
inactive: endpoint: mean survival time, dose: 0.78 mg/kg/injection, schedule: Q01DX009 (ip), vehicle: water 107 % of control | endpoint: mean survival time, dose: 1.56 mg/kg/injection, schedule: Q01DX009 (ip), vehicle: water 106 % of control | endpoint: mean survival time, dose: 3.13 mg/kg/injection, schedule: Q01DX009 (ip), vehicle: water 101 % of control | endpoint: mean survival time, dose: 6.25 mg/kg/injection, schedule: Q01DX009 (ip), vehicle: water 106 % of control | endpoint: mean survival time, dose: 12.5 mg/kg/injection, schedule: Q01DX009 (ip), vehicle: water 101 % of control

Cc1cc(C(C)(C)C)c(OC(=S)N(C)C)c(C(C)(C)C)c1
inactive: [10] 92 % of control | [11] 89 % of control

O=C(Nc1ccc(Cl)cc1[N+](=O)[O-])c1ccc2ccccc2c1O
inactive: endpoint: mean survival time, dose: 100.0 mg/kg/injection, schedule: Q01DX001 (ip), vehicle: Klucel (hydroxypropylcellulose) (HPC) 100 % of control | endpoint: mean survival time, dose: 200.0 mg/kg/injection, schedule: Q01DX001 (ip), vehicle: Klucel (hydroxypropylcellulose) (HPC) 105 % of control | endpoint: mean survival time, dose: 400.0 mg/kg/injection, schedule: Q01DX001 (ip), vehicle: Klucel (hydroxypropylcellulose) (HPC) 100 % of control

CCCCCCCCCCCCCCCCCC[N+]1(C)CCC1C (stereo not drawn)
inactive: endpoint: mean survival time, dose: 1.56 mg/kg/injection, schedule: Q01DX001 (ip), vehicle: saline 101 % of control | endpoint: mean survival time, dose: 3.12 mg/kg/injection, schedule: Q01DX001 (ip), vehicle: saline 102 % of control

C=C1CC(C)(Cn2cnc3c(N)ncnc32)OC1=O (stereo not drawn)
inactive: endpoint: median survival time, dose: 6.13 mg/kg/injection, schedule: Q01DX005 (ip), vehicle: water 104 % of control | endpoint: median survival time, dose: 12.25 mg/kg/injection, schedule: Q01DX005 (ip), vehicle: water 101 % of control | endpoint: median survival time, dose: 24.5 mg/kg/injection, schedule: Q01DX005 (ip), vehicle: water 103 % of control | endpoint: median survival time, dose: 49.0 mg/kg/injection, schedule: Q01DX005 (ip), vehicle: water 101 % of control

O=Cc1ccc(O)c(O)c1
inactive: endpoint: mean survival time, dose: 12.5 mg/kg/injection, schedule: Q01DX009 (ip), vehicle: saline 93 % of control | [10] 106 % of control | endpoint: mean survival time, dose: 25.0 mg/kg/injection, schedule: Q01DX009 (ip), vehicle: saline 98 % of control | [11] 106 % of control | endpoint: mean survival time, dose: 50.0 mg/kg/injection, schedule: Q01DX009 (ip), vehicle: saline 98 % of control | [1] 114 % of control and 102 % of control | endpoint: mean survival time, dose: 100.0 mg/kg/injection, schedule: Q01DX009 (ip), vehicle: saline 107 % of control | [3] 109 % of control | [12] 116 % of control | [5] 117 % of control

O.O=S(=O)([O-])O.O=[N+]([O-])O.[Co+3].[NH2-].[NH2-].[NH2-].[NH2-]
inactive: [7] 94 % of control | [8] 97 % of control

COc1ccc(C(=O)CCC(=O)O)c(C)c1
inactive: endpoint: mean survival time, dose: 100.0 mg/kg/injection, schedule: Q04DX003 (ip), vehicle: saline 96 % of control | endpoint: mean survival time, dose: 200.0 mg/kg/injection, schedule: Q04DX003 (ip), vehicle: saline 94 % of control | endpoint: mean survival time, dose: 400.0 mg/kg/injection, schedule: Q04DX003 (ip), vehicle: saline 92 % of control

CC12CC(c3ccccc3)C(C)(C(c3ccccc3)=C1c1ccccc1)C2(O)c1ccccc1 (stereo not drawn)
inactive: [7] 94 % of control | [8] 86 % of control | [9] 94 % of control

NC(=O)C(CCCCC(C(N)=O)C(N)=O)C(N)=O
inactive: [7] 96 % of control | [8] 108 % of control | [9] 108 % of control

O=C(O)CC(NC(=O)CP(=O)(O)O)C(=O)O (stereo not drawn)
inactive: endpoint: mean survival time, dose: 86.4 mg/kg/injection, schedule: Q01DX009 (ip), vehicle: saline 98 % of control | [12] 112 % of control | endpoint: mean survival time, dose: 225.0 mg/kg/injection, schedule: Q01DX009 (ip), vehicle: saline 116 % of control | endpoint: mean survival time, dose: 240.0 mg/kg/injection, schedule: Q01DX009 (ip), vehicle: saline 105 % of control | endpoint: mean survival time, dose: 250.0 mg/kg/injection, schedule: Q01DX009 (ip), vehicle: saline 115 % of control

OCCc1cc[nH]c1
inactive: [1] 104 % of control | [2] 95 % of control | [3] 101 % of control | [4] 97 % of control | [5] 113 % of control | [6] 97 % of control

O=C(/C=C(\CN1CCCCC1)c1ccccc1)c1ccccc1
inactive: endpoint: mean survival time, dose: 25.0 mg/kg/injection, schedule: Q01DX009 (ip), vehicle: Klucel (hydroxypropylcellulose) (HPC) 95 % of control | endpoint: mean survival time, dose: 50.0 mg/kg/injection, schedule: Q01DX009 (ip), vehicle: Klucel (hydroxypropylcellulose) (HPC) 105 % of control | endpoint: mean survival time, dose: 100.0 mg/kg/injection, schedule: Q01DX009 (ip), vehicle: Klucel (hydroxypropylcellulose) (HPC) 94 % of control

O=C1C2C3CCC(O3)C2C(=O)N1CC#CCN1C(=O)C2C3CCC(O3)C2C1=O (stereo not drawn)
inactive: [7] 98 % of control | [8] 98 % of control | [9] 90 % of control
